The results in this text go back to patent publication US5250305A, “Process for enzymatic ultrafiltration of deamidated protein” (The United States of America as represented by the …, priority 1990, dated 1993).

Structures are written as SMILES. Peptide text beside a SMILES is read from it.

The test system of the test is PGase. As to the kind of experiment: Km and Vmax of PGase substrates (Lineweaver-Burk plot). Type of test: biochemical, Bacillus circulans. Particulars: 0.05 M phosphate buffer, pH 7.0, 30° C. How it is done: A 1 mL enzyme preparation containing 0.25-0.50 mg protein was added to 2-5 mL substrate in 0.05 M phosphate buffer, pH 7.0. The substrate concentrations were 0.2% CBZ-L-Gln, 0.2% BOC-Gln-Pro and 0.2% peptone type IV. Peptone solutions (5%) were ultrafiltered prior to use, through the 30 kd spiral membrane incubated at 30° C. for 30 or 60 min, then the ammonia constant of the samples was determined with a model 95-10 ammonia electrode (Orion Research Inc., Cambridge, Mass.).
The effects of the molarity and pH of the sodium phosphate buffer on PGase activity were studied. The progress of the PGase deamidation reaction of Peptone IV in 0.05 M phosphate buffer, pH 7.0, as a function of time was measured at 25° C. and 30° C.

In general, Km refers to the concentration of substrate that gives half-maximal velocity. What is called Vmax is the rate approached at saturating substrate. As to `CC(C)(C)OC(=O)N[C@@H](CCC(N)=O)C(=O)N1CCC[C@H]1C(=O)O` [BOC-glutamine-proline, t-BOC-L-glutaminyl-L-proline] (HELM PEPTIDE1{[CC(C)(C)OC(=O)[*:2]].Q.P}$$$$V2.0), the Km turned out to be 143 µM and the Vmax was determined as 0.52 µmol/min/mg.
As to `NC(=O)CC[C@H](NC(=O)OCc1ccccc1)C(=O)O` [CBZ-glutamine, CBZ-L-glutamine], the Km was found to be 67 µM.
